These results are taken from US11970474B2, “Substituted benzodiazoles and use thereof in therapy” (THOMAS HELLEDAYS STIFTELSE FÖR MEDICINSK FORSKNING, priority 2018, dated 2024).

pIC50: −log10 of the molar value.

OGG1, sequence (O15527 whole entry): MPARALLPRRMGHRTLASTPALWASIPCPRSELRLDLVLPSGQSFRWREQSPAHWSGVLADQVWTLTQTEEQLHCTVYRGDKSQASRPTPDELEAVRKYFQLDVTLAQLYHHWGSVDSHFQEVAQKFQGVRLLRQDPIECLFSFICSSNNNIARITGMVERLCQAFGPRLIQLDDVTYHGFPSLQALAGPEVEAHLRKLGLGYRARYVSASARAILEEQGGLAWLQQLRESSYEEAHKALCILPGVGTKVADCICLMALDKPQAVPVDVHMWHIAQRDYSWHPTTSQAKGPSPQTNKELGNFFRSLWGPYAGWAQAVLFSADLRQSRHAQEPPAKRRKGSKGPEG

This assay has as its target OGG1 (Homo sapiens (Human), UniProt O15527). The assay can be described thus: In vitro OGG1 activity assay. Format: biochemical. To be noted: 800 pM OGG1 enzyme, 2 nM human APEX1, 10 nM 8-oxoA:C substrate. The gist of the method:
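Read-out is fluorescein fluorescence, with compounds in DMSO added first, then enzyme and substrate. OGG1 excises its substrate base from a quenched fluorophore-labelled duplex, and surplus APEX1 cuts the resulting apurinic site. The duplex then melts and fluorescence rises in proportion to glycosylase activity.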
For orientation: pIC50 means the IC50 on a negative log10 scale, so that one unit is a factor of ten. The low end stands for a large IC50, the high end for a small IC50. Consider `COCCOc1cccc2c1[nH]c(=O)n2[C@H]1CC[C@@H](C(=O)Nc2ccc3cc[nH]c3c2)CC1` [Example 246, Cis-N-(1H-indol-6-yl)-4-[4-(2-methoxyethoxy)-2-oxo-2,3-dihydro-1H-1,3-benzodiazol-1-yl]cyclohexane-1-carboxamide], for which the pIC50 was 5.44.
As to `O=C(Nc1ccc(I)cc1)N1CCC(n2c(=O)[nH]c3c(CCO)cccc32)CC1` [Example 30, 4-[4-(2-Hydroxyethyl)-2-oxo-2,3-dihydro-1H-1,3-benzodiazol-1-yl]-N-(4-iodophenyl)piperidine-1-carboxamide], the pIC50 is 5.77. This pIC50 lies 0.33 log units higher than the previous one.
For the molecule `COc1cc(NC(=O)[C@H]2CC[C@@H](n3c(=O)[nH]c4c(Br)cccc43)CC2)cc(OC)c1OC` [Example 193, Cis-4-(4-bromo-2-oxo-2,3-dihydro-1H-1,3-benzodiazol-1-yl)-N-(3,4,5-trimethoxyphenyl)cyclohexane-1-carboxamide], the pIC50 is 5.86.
The value for `COc1cc(NC(=O)[C@H]2CC[C@@H](n3c(=O)[nH]c4c(Br)cccc43)CC2)cc(C(F)(F)F)c1` [Example 158, (Cis)-4-(4-bromo-2-oxo-2,3-dihydro-1H-1,3-benzodiazol-1-yl)-N-[3-methoxy-5-(trifluoromethyl)phenyl]cyclohexane-1-carboxamide] was 5.22; that for `COc1cc(NC(=O)N2CCC(n3c(=O)[nH]c4c(-c5cccnc5)cccc43)CC2)ccc1C` [Example 95, N-(3-methoxy-4-methylphenyl)-4-[2-oxo-4-(pyridin-3-yl)-2,3-dihydro-1H-1,3-benzodiazol-1-yl]piperidine-1-carboxamide] was 5.74; that for `COc1ccc(NC(=O)N2CCC(n3c(=O)[nH]c4cc(C)ccc43)CC2)cc1Cl` [Example 179, N-(3-Chloro-4-methoxyphenyl)-4-(5-methyl-2-oxo-2,3-dihydro-1H-1,3-benzodiazol-1-yl)piperidine-1-carboxamide] was 5.80.
With `O=c1[nH]c2c(Br)cccc2n1[C@H]1CC[C@@H](C(=O)Nc2cccc(CO)c2)CC1` [Example 231, Cis-4-(4-bromo-2-oxo-2,3-dihydro-1H-1,3-benzodiazol-1-yl)-N-[3-(hydroxymethyl)phenyl]cyclohexane-1-carboxamide] the figure was 5.09; with `Cc1ccc(NC(=O)[C@H]2CC[C@@H](n3c(=O)[nH]c4c(Br)cccc43)CC2)c(O)c1` [Example 222, Cis-4-(4-bromo-2-oxo-2,3-dihydro-1H-1,3-benzodiazol-1-yl)-N-(2-hydroxy-4-methylphenyl)cyclohexane-1-carboxamide], 6.46; with `COc1cc(NC(=O)[C@H]2CC[C@@H](n3c(=O)[nH]c4c(Br)cccc43)CC2)ccc1C#N` [Example 159, (Cis)-4-(4-bromo-2-oxo-2,3-dihydro-1H-1,3-benzodiazol-1-yl)-N-(4-cyano-3-methoxyphenyl)cyclohexane-1-carboxamide], 5.31.
With `COc1ccc(NC(=O)[C@H]2CC[C@@H](n3c(=O)[nH]c4ccc(F)cc43)CC2)cc1` [Example 216, Cis-4-(6-fluoro-2-oxo-2,3-dihydro-1H-1,3-benzodiazol-1-yl)-N-(4-methoxyphenyl)cyclohexane-1-carboxamide], the pIC50 was 5.09. Compared with the last molecule, the pIC50 is 0.22 log units lower.
The value for `COc1ccc(NC(=O)N2CCC(n3c(=O)[nH]c4c(-c5ccc(N)nc5)cccc43)CC2)cc1Cl` [Example 99, 4-[4-(6-Aminopyridin-3-yl)-2-oxo-2,3-dihydro-1H-1,3-benzodiazol-1-yl]-N-(3-chloro-4-methoxyphenyl)piperidine-1-carboxamide] was 5.93; that for `COc1cc(NC(=O)[C@H]2CC[C@@H](n3c(=O)[nH]c4cc(CN)ccc43)CC2)ccc1C` [Example 256, Cis-4-[5-(aminomethyl)-2-oxo-2,3-dihydro-1H-1,3-benzodiazol-1-yl]-N-(3-methoxy-4-methylphenyl)cyclohexane-1-carboxamide] was 5.57.
On to `COc1ncc(NC(=O)[C@H]2CC[C@@H](n3c(=O)[nH]c4ncccc43)CC2)cc1C` [Example 235, Cis-N-(6-methoxy-5-methylpyridin-3-yl)-4-{2-oxo-1H,2H,3H-imidazo[4,5-b]pyridin-1-yl}cyclohexane-1-carboxamide], for which the negative-log IC50 (pIC50) is 5.84.
With `CN(C)c1ccc(NC(=O)[C@H]2CC[C@@H](n3c(=O)[nH]c4c(Br)cccc43)CC2)cc1` [Example 200, Cis-4-(4-bromo-2-oxo-2,3-dihydro-1H-1,3-benzodiazol-1-yl)-N-[4-(dimethylamino)phenyl]cyclohexane-1-carboxamide] the figure was 6.20; with `CN(C)CCOc1ccc(-c2cccc3c2[nH]c(=O)n3C2CCN(C(=O)Nc3ccc(Cl)c(Cl)c3)CC2)cc1` [Example 36, N-(3,4-dichlorophenyl)-4-(4-{4-[2-(dimethylamino)ethoxy]phenyl}-2-oxo-2,3-dihydro-1H-1,3-benzodiazol-1-yl)piperidine-1-carboxamide], 5.44.
`COc1ccc(NC(=O)N2CCC(n3c(=O)[nH]c4c(C)ccnc43)CC2)cc1Cl` [Example 180, N-(3-Chloro-4-methoxyphenyl)-4-{7-methyl-2-oxo-1H,2H,3H-imidazo[4,5-b]pyridin-3-yl}piperidine-1-carboxamide] had a negative logarithm of the IC50 (pIC50) of 5.05.
`Cc1nc2ccc(NC(=O)[C@H]3CC[C@@H](n4c(=O)[nH]c5c(Br)cccc54)CC3)cc2o1` [Example 203, Cis-4-(4-bromo-2-oxo-2,3-dihydro-1H-1,3-benzodiazol-1-yl)-N-(2-methyl-1,3-benzoxazol-6-yl)cyclohexane-1-carboxamide] gave a negative-log IC50 (pIC50) of 5.20.
With `COc1cc(NC(=O)[C@H]2CC[C@@H](n3c(=O)[nH]c4c(N5CCC(N)CC5)cccc43)CC2)ccc1C` [Example 303, Cis-4-[4-(4-aminopiperidin-1-yl)-2-oxo-2,3-dihydro-1H-1,3-benzodiazol-1-yl]-N-(3-methoxy-4-methylphenyl)cyclohexane-1-carboxamide], the negative logarithm of the IC50 (pIC50) is 7.97.
Molecule `Cc1cc(NC(=O)[C@H]2CC[C@@H](n3c(=O)[nH]c4ccc(F)cc43)CC2)ccc1O` [Example 220, Cis-4-(6-fluoro-2-oxo-2,3-dihydro-1H-1,3-benzodiazol-1-yl)-N-(4-hydroxy-3-methylphenyl)cyclohexane-1-carboxamide] had a pIC50 of 5.06.
In the case of `COc1ccc(NC(=O)N2CCC(n3c(=O)[nH]c4c(N(C)CCN(C)C)cccc43)CC2)cc1Cl` [Example 106, N-(3-chloro-4-methoxyphenyl)-4-(4-{[2-(dimethylamino)ethyl](methyl)amino}-2-oxo-2,3-dihydro-1H-1,3-benzodiazol-1-yl)piperidine-1-carboxamide], the negative logarithm of the IC50 (pIC50) was 5.76.
`O=C(Nc1cnc(Cl)c(Cl)c1)N1CCC(n2c(=O)[nH]c3c(Br)cccc32)CC1` [Example 109, 4-(4-Bromo-2-oxo-2,3-dihydro-1H-1,3-benzodiazol-1-yl)-N-(5,6-dichloropyridin-3-yl)piperidine-1-carboxamide] showed a negative logarithm of the IC50 (pIC50) of 5.19.
Take `CN(C)c1cccc(NC(=O)[C@H]2CC[C@@H](n3c(=O)[nH]c4c(Br)cccc43)CC2)c1` [Example 198, Cis-4-(4-bromo-2-oxo-2,3-dihydro-1H-1,3-benzodiazol-1-yl)-N-[3-(dimethylamino)phenyl]cyclohexane-1-carboxamide]: the pIC50 was 5.27.
The value for `O=c1[nH]c2c(Br)cccc2n1[C@H]1CC[C@@H](C(=O)Nc2ccc(C(F)(F)F)c(F)c2)CC1` [Example 137, (Cis)-4-(4-bromo-2-oxo-2,3-dihydro-1H-1,3-benzodiazol-1-yl)-N-[3-fluoro-4-(trifluoromethyl)phenyl]cyclohexane-1-carboxamide] was 5.69; that for `CCN(CC)C(=O)c1cnn(-c2cccc3c2[nH]c(=O)n3C2CCN(C(=O)Nc3ccc(I)cc3)CC2)c1` [Example 88, 4-{4-[4-(Diethylcarbamoyl)-1H-pyrazol-1-yl]-2-oxo-2,3-dihydro-1H-1,3-benzodiazol-1-yl}-N-(4-iodophenyl)piperidine-1-carboxamide] was 5.75.
In the case of `Cc1ccc2c(c1)[nH]c(=O)n2C1CCN(C(=O)Nc2ccc(I)cc2)CC1` [Example 11, N-(4-iodophenyl)-4-(5-methyl-2-oxo-2,3-dihydro-1H-1,3-benzodiazol-1-yl)piperidine-1-carboxamide], the pIC50 was 5.75.
For `COc1cc(NC(=O)[C@H]2CC[C@@H](n3c(=O)[nH]c4c(C(=O)N5CCNCC5)cccc43)CC2)ccc1C` [Example 261, Cis-N-(3-methoxy-4-methylphenyl)-4-[2-oxo-4-(piperazine-1-carbonyl)-2,3-dihydro-1H-1,3-benzodiazol-1-yl]cyclohexane-1-carboxamide], the pIC50 was 7.17.
With `COc1cc(NC(=O)[C@H]2CC[C@@H](n3c(=O)[nH]c4c(OCCC(C)C)cccc43)CC2)ccc1C` [Example 325, Cis-N-(3-methoxy-4-methylphenyl)-4-[4-(3-methylbutoxy)-2-oxo-2,3-dihydro-1H-1,3-benzodiazol-1-yl]cyclohexane-1-carboxamide] the figure was 6.50.
`O=c1[nH]c2c(Br)cccc2n1[C@H]1CC[C@@H](C(=O)Nc2cccc(Cl)c2)CC1` [Example 138, (Cis)-4-(4-bromo-2-oxo-2,3-dihydro-1H-1,3-benzodiazol-1-yl)-N-(3-chlorophenyl)cyclohexane-1-carboxamide]: the negative-log IC50 (pIC50) is 5.70.
Molecule `COc1cc(NC(=O)[C@H]2CC[C@@H](n3c(=O)[nH]c4c(C(=O)NCCN)cccc43)CC2)ccc1C` [Example 247, N-(2-Aminoethyl)-2-oxo-1-[cis-4-[(3-methoxy-4-methylphenyl)carbamoyl]cyclohexyl]-2,3-dihydro-1H-1,3-benzodiazole-4-carboxamide] gave a negative logarithm of the IC50 (pIC50) of 9.21. This pIC50 lies 3.51 log units higher than the previous one.
`COc1ccc(NC(=O)[C@H]2CC[C@@H](n3c(=O)[nH]c4ncccc43)CC2)cc1` [Example 234, Cis-N-(4-methoxyphenyl)-4-{2-oxo-1H,2H,3H-imidazo[4,5-b]pyridin-1-yl}cyclohexane-1-carboxamide] showed a negative logarithm of the IC50 (pIC50) of 6.24.
